In patent US12528788B2, “Pesticidally active benzene- and azine-amide compounds” (SYNGENTA CROP PROTECTION AG, priority 2018, dated 2026):

Experiments:
Format in all cases: in vivo
[1] = system: Chilo suppressalis; test: Example B4: Chilo suppressalis (striped rice stemborer), artificial diet, L2 larvae; conditions: 144 h, application rate of 200 ppm, 6 days after infestation, read-out: control in at least one of the three categories (mortality, anti-feedant effect or growth inhibition)
Method: Example B4: Chilo suppressalis (Striped Rice Stemborer)
24-well microtiter plates with artificial diet were treated with aqueous test solutions prepared from 10′000 ppm DMSO stock solutions by pipetting. After drying, the plates were infested with L2 larvae (6-8 per well). The samples were assessed for mortality, anti-feeding effect, and growth inhibition in comparison to untreated samples 6 days after infestation. Control of Chilo suppressalis by a test sample is given when at least one of the categories mortality, anti-feedant effect, and growth inhibition is higher than the untreated sample.

[2] = system: Myzus persicae; test: Example B13: Myzus persicae (green peach aphid), 96-well sucrose solution; conditions: 120 h, application rate of 50 ppm, 5 days after infestation
From the text: Example B13: Myzus persicae (Green Peach Aphid)
Test compounds prepared from 10′000 ppm DMSO stock solutions were applied by a liquid handling robot into 96-well microtiter plates and mixed with a sucrose solution. Parafilm was stretched over the 96-well microtiter plate and a plastic stencil with 96 holes was placed onto the plate. Aphids were sieved into the wells directly onto the Parafilm. The infested plates were closed with a gel blotting card and a second plastic stencil and then turned upside down. The samples were assessed for mortality 5 days after infestation.

[3] = system: Plutella xylostella; test: Example B5: Plutella xylostella (diamond back moth), artificial diet, 24-well, eggs; conditions: 192 h, application rate of 200 ppm, 8 days after infestation, read-out: control in at least one of the two categories (mortality or growth inhibition)
Method: Example B5: Plutella xylostella (Diamond Back Moth)
24-well microtiter plates with artificial diet were treated with aqueous test solutions prepared from 10′000 ppm DMSO stock solutions by pipetting. After drying, Plutella eggs were pipetted through a plastic stencil onto a gel blotting paper and the plate was closed with it. The samples were assessed for mortality and growth inhibition in comparison to untreated samples 8 days after infestation.

[4] = system: Thrips tabaci; test: Example B12: Thrips tabaci (onion thrips) feeding/contact activity; conditions: foliar, 144 h, application rate of 200 ppm, 6 days after infestation, sunflower leaf discs
Method: Example B12: Thrips tabaci (Onion Thrips) Feeding/Contact Activity
(§1) Sunflower leaf discs were placed on agar in 24-well microtiter plates and sprayed with aqueous test solutions prepared from 10′000 ppm DMSO stock solutions. After drying the leaf discs were infested with a Thrips population of mixed ages. The samples were assessed for mortality 6 days after infestation.

[5] = system: Euschistus heros; test: Example B2: Euschistus heros (neotropical brown stink bug), soybean leaves sprayed, N2 nymphs; conditions: 120 h, application rate of 200 ppm, 5 days after infestation, N2 nymphs on soybean leaves, read-out: control in at least one of the two categories (mortality or growth inhibition)
Method: Example B2: Euschistus heros (Neotropical Brown Stink Bug)
Soybean leaves on agar in 24-well microtiter plates were sprayed with aqueous test solutions prepared from 10′000 ppm DMSO stock solutions. After drying the leaves were infested with N2 nymphs. The samples were assessed for mortality and growth inhibition in comparison to untreated samples 5 days after infestation.

[6] = system: Plutella xylostella; test: Example B14: Plutella xylostella (diamondback moth), 96-well artificial diet; conditions: 216 h, application rate of 500 ppm, 9 days after infestation
Method: Example B14: Plutella xylostella (Diamondback Moth)
96-well microtiter plates containing artificial diet were treated with aqueous test solutions, prepared from 10′000 ppm DMSO stock solutions, by a liquid handling robot. After drying, eggs (˜30 per well) were infested onto a netted lid which was suspended above the diet. The eggs hatch and L1 larvae move down to the diet. The samples were assessed for mortality 9 days after infestation.

[7] = system: Diabrotica balteata; test: Example B1: Diabrotica balteata (corn root worm), maize sprouts sprayed, L2 larvae; conditions: 96 h, application rate of 200 ppm, 4 days after infestation, L2 larvae on maize sprouts, read-out: control in at least one of the two categories (mortality or growth inhibition)
Method: Example B1: Diabrotica balteata (Corn Root Worm)
Maize sprouts placed onto an agar layer in 24-well microtiter plates were treated with aqueous test solutions prepared from 10′000 ppm DMSO stock solutions by spraying. After drying, the plates were infested with L2 larvae (6 to 10 per well). The samples were assessed for mortality and growth inhibition in comparison to untreated samples 4 days after infestation.

[8] = system: Myzus persicae; test: Example B8: Myzus persicae (green peach aphid) intrinsic activity; conditions: 120 h, test rate of 12 ppm, 5 days after infestation, sucrose solution
From the text: Example B8: Myzus persicae (Green Peach Aphid). Intrinsic Activity
Test compounds prepared from 10′000 ppm DMSO stock solutions were applied by pipette into 24-well microtiter plates and mixed with sucrose solution. The plates were closed with a stretched Parafilm. A plastic stencil with 24 holes was placed onto the plate and infested pea seedlings were placed directly on the Parafilm. The infested plate was closed with a gel blotting paper and another plastic stencil and then turned upside down. The samples were assessed for mortality 5 days after infestation.

[9] = system: Spodoptera littoralis; test: Example B9: Spodoptera littoralis (Egyptian cotton leaf worm), cotton leaf discs sprayed, L1 larvae; conditions: foliar, 72 h, application rate of 200 ppm, 3 days after infestation, read-out: control in at least one of the three categories (mortality, anti-feedant effect or growth inhibition)
[10] = system: Frankliniella occidentalis; test: Example B3: Frankliniella occidentalis (western flower thrips) feeding/contact activity; conditions: foliar, 168 h, application rate of 200 ppm, 7 days after infestation, sunflower leaf discs, mixed ages
Method: Example B3: Frankliniella occidentalis (Western Flower Thrips) Feeding/Contact Activity
as §1, with “[…]” for “10′000 ppm”, “Frankliniella” for “Thrips”, “7” for “6”

[11] = system: Tetranychus urticae; test: Example B11: Tetranychus urticae (two-spotted spider mite) feeding/contact activity; conditions: foliar, 192 h, application rate of 200 ppm, 8 days after infestation, bean leaf discs, mixed population (mobile stages)
Method: Example B11: Tetranychus urticae (Two-Spotted Spider Mite): Feeding/Contact Activity
as §1, with “Bean” for “Sunflower”, “discs” for “discs were placed”, “were” for “and”, “mite” for “Thrips”, “on mixed population (mobile stages) 8” for “6”

[12] = system: Myzus persicae; test: Example B6: Myzus persicae (green peach aphid) feeding/contact activity; conditions: foliar, 144 h, application rate of 200 ppm, 6 days after infestation, sunflower leaf discs
Method: Example B6: Myzus persicae (Green Peach Aphid) Feeding/Contact Activity
Sunflower leaf discs were placed onto agar in a 24-well microtiter plate and sprayed with aqueous test solutions prepared from 10′000 ppm DMSO stock solutions. After drying, the leaf discs were infested with an aphid population of mixed ages. The samples were assessed for mortality 6 days after infestation.

[13] = system: Spodoptera littoralis; test: Example B10: Spodoptera littoralis (Egyptian cotton leaf worm), uptake by lettuce roots from agar; conditions: 144 h, test rate of 12.5 ppm, 6 days after infestation, lettuce grown on treated agar, read-out: control in at least one of the three categories (mortality, anti-feeding, or growth inhibition)
From the text: Example B10: Spodoptera littoralis (Egyptian Cotton Leaf Worm)
Test compounds were applied by pipette from 10′000 ppm DMSO stock solutions into 24-well plates and mixed with agar. Lettuce seeds were placed onto the agar and the multi well plate was closed by another plate which contained also agar. After 7 days the compound was absorbed by the roots and the lettuce grew into the lid plate. The lettuce leaves were then cut off into the lid plate. Spodoptera eggs were pipetted through a plastic stencil onto a humid gel blotting paper and the lid plate was closed with it. The samples were assessed for mortality, anti-feedant effect and growth inhibition in comparison to untreated samples 6 days after infestation.

[14] = system: Myzus persicae; test: Example B7: Myzus persicae (green peach aphid) systemic activity; conditions: 144 h, test rate of 24 ppm, 6 days after placing seedlings into test solutions, pea seedlings
Method: Example B7: Myzus persicae (Green Peach Aphid) Systemic Activity
Roots of pea seedlings infested with an aphid population of mixed ages were placed directly into aqueous test solutions prepared from 10′000 DMSO stock solutions. The samples were assessed for mortality 6 days after placing seedlings into test solutions.

CC(c1nccnc1-c1ncccn1)N(CC1CC1)C(=O)c1cc(C(F)(F)F)cc(C(F)(F)F)c1 (centres unmarked) [Compound P5, N-(cyclopropylmethyl)-N-[1-(3-pyrimidin-2-ylpyrazin-2-yl)ethyl]-3,5-bis(trifluoromethyl)benzamide]
≥ 80%: percent control (mortality, anti-feedant effect or growth inhibition) at 200 ppm [1] | mortality at 50 ppm [2] | percent control (mortality or growth inhibition) at 200 ppm [3] | mortality at 200 ppm [4] | percent control (mortality or growth inhibition) at 200 ppm [5] | mortality at 500 ppm [6] | percent control (mortality or growth inhibition) at 200 ppm [7] | mortality at 12 ppm [8] | percent control (mortality, anti-feedant effect or growth inhibition) at 200 ppm [9]

CC(NC(=O)c1cc(SC(F)(F)F)cc(C(F)(F)F)c1)c1nccnc1-c1ncccn1 (centres unmarked) [Compound P19, N-[1-(3-pyrimidin-2-ylpyrazin-2-yl)ethyl]-3-(trifluoromethyl)-5-(trifluoromethylsulfanyl)benzamide]
≥ 80%: percent control (mortality, anti-feedant effect or growth inhibition) at 200 ppm [1] | mortality at 50 ppm [2] | percent control (mortality or growth inhibition) at 200 ppm [3] | mortality at 200 ppm [10] | mortality at 500 ppm [6] | percent control (mortality or growth inhibition) at 200 ppm [7] | mortality at 12 ppm [8] | percent control (mortality, anti-feedant effect or growth inhibition) at 200 ppm [9]

CC(NC(=O)c1cc(OC(F)F)cc(C(F)(F)F)c1)c1nccnc1-c1ncccn1 (centres unmarked) [Compound P23, 3-(difluoromethoxy)-N-[1-(3-pyrimidin-2-ylpyrazin-2-yl)ethyl]-5-(trifluoromethyl)benzamide]
≥ 80%: percent control (mortality, anti-feedant effect or growth inhibition) at 200 ppm [1] | mortality at 50 ppm [2] | percent control (mortality or growth inhibition) at 200 ppm [3] | mortality at 200 ppm [11] | mortality at 200 ppm [12] | percent control (mortality or growth inhibition) at 200 ppm [5] | percent control (mortality, anti-feeding or growth inhibition) at 12.5 ppm [13] | mortality at 500 ppm [6] | percent control (mortality or growth inhibition) at 200 ppm [7] | mortality at 12 ppm [8] | mortality at 24 ppm [14] | percent control (mortality, anti-feedant effect or growth inhibition) at 200 ppm [9]
